PubChem BioAssay (NCI)
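Exposure lasted 48 hours, with cells grown in 96-well plates and compounds tested at five concentrations. TGI is the concentration that stops growth completely.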

Key:
Assay in all cases: DTP human tumour cell line panel, 48 h
NCI-H522 lung = test system: NCI-H522 lung
DU-145 prostate = test system: DU-145 prostate
BT-549 breast = test system: BT-549 breast
HS 578T breast = test system: HS 578T breast
HOP-62 NSCLC = test system: HOP-62 NSCLC
COLO 205 colon = test system: COLO 205 colon
T-47D breast = test system: T-47D breast
HCT-15 colon = test system: HCT-15 colon
OVCAR-3 ovarian = test system: OVCAR-3 ovarian
SNB-19 CNS = test system: SNB-19 CNS
SK-OV-3 ovarian = test system: SK-OV-3 ovarian
SK-MEL-2 melanoma = test system: SK-MEL-2 melanoma
SF-539 CNS = test system: SF-539 CNS
CAKI-1 renal = test system: CAKI-1 renal
LOX IMVI melanoma = test system: LOX IMVI melanoma
SR leukemia = test system: SR leukemia
RPMI-8226 leukemia = test system: RPMI-8226 leukemia
786-0 renal = test system: 786-0 renal
TK-10 renal = test system: TK-10 renal
HCC-2998 colon = test system: HCC-2998 colon

Row | SMILES | TGI (NCI-H522 lung) [µM] | TGI (DU-145 prostate) [µM] | TGI (BT-549 breast) [µM] | TGI (HS 578T breast) [µM] | TGI (HOP-62 NSCLC) [µM] | TGI (COLO 205 colon) [µM] | TGI (T-47D breast) [µM] | TGI (HCT-15 colon) [µM] | TGI (OVCAR-3 ovarian) [µM] | TGI (SNB-19 CNS) [µM] | TGI (SK-OV-3 ovarian) [µM] | TGI (SK-MEL-2 melanoma) [µM] | TGI (SF-539 CNS) [µM] | TGI (CAKI-1 renal) [µM] | TGI (LOX IMVI melanoma) [µM] | TGI (SR leukemia) [µM] | TGI (RPMI-8226 leukemia) [µM] | TGI (786-0 renal) [µM] | TGI (TK-10 renal) [µM] | TGI (HCC-2998 colon) [µM]
1 | COc1ccc2cc(CNCCCCCCCCCCCCNCc3ccc4cc(OC)ccc4c3)ccc2c1 | 33.8 | > 56.1 | 33 | 31.7 | 39.2 | > 55.9 | 49.9 | 50.9 | 37.1 | 31.3 | 32.7 | 41.1 | 31.8 | 47.3 | 28.2 | > 21.5 | 42.6 | 30.1 | 32.8 | 39.1
2 | CCN(CC)C1Oc2cc3c(cc2C(c2ccc(OC)cc2)C1C)OCO3 (configuration not stated) | 35.8 | 76.4 | 67 | 48.2 | 54.9 | 34.5 | 77 | 98.1 | 37.1 | 83.7 | 97.4 | 38.6 | 40.1 | 76.4 | 34.1 | 27.6 | 38 | 48 | 56.2 | 35.3
3 | O=c1[nH]c(C23CC4CC(CC(C4)C2)C3)cc2c1c(=O)oc1ccccc12 | 11.1 | 22 | 38.2 | > 20.3 | 9.56 | 46.9 | 44.6 | 81.3 | 17.5 | 17.7 | 11 | 38.7 | 17.4 | 7.03 | 11.6 | 9.31 | 15.1 | 3.1 | 12.2 | 19.6
4 | CCOC(=O)C(C(=O)OCC)=C1NC2(c3ccccc3Nc3ccc(C)cc32)C(C#N)S1 (configuration not stated) | 30 | 43.8 | 29.5 | 46.5 | 33.7 | 14.6 | 34.6 | 29.5 | 8.44 | 30.8 | 98.9 | 22.1 | 12 | 72 | 24.4 | 4.99 | 4.63 | 30.1 | 31.1 | 11.3
5 | O=C1CC(=O)NC(=NN2C(=O)/C(=C/C(=O)c3ccco3)N=C2c2ccccc2)N1 | 79.8 | > 100 | > 100 | > 100 | > 100 | > 100 | > 100 | > 100 | > 100 |  | > 100 | > 100 | > 100 | > 100 |  | 41.3 |  | > 100 | > 100 | > 100
6 | CCOC(=O)C1=CN/C(=C(/C)C(=O)OC)SC1C(=O)OCC (configuration not stated) | > 100 | > 100 | > 100 | > 100 | > 100 | > 100 | > 100 | > 100 | > 100 | > 100 | > 100 | > 100 | > 100 | > 100 | > 100 | > 100 | > 100 | > 100 | > 100 | > 100
7 | CO[C@H]1c2cccc3cccc(c23)[C@@H]1n1[nH]c(=O)n(C(C)(C)C)c1=O | > 100 | > 100 | > 100 | > 100 |  | > 100 | > 100 | > 100 | > 100 | > 100 | > 100 | > 100 | > 100 | > 100 | > 100 | > 100 | > 100 | > 100 | > 100 | > 100
8 | C=C1C(=O)OC2/C=C(\CO)C3OC3C3OC3(C)CC(OC(=O)/C(=C/C)CO)C12 (configuration not stated) | 45.6 | > 100 | > 100 | > 100 | > 100 | > 100 | > 100 | > 100 | > 100 | > 100 | > 100 | > 100 | > 100 | 77.4 | > 100 | 89 | 45.7 | > 100 | > 100 | > 100
9 | CNc1c2cccc(C)c2nc2c(C(=O)NCCN(C)C)cccc12 | 0.109 | 0.684 | 2.8 | 0.497 | 0.578 | 0.278 | 0.675 | 0.634 | 1.05 | 0.876 | 1.94 | 0.996 | 0.245 | 0.23 | 0.391 | 0.469 | 0.57 | 1.47 | 0.617 | 0.192
10 | Cc1c(C)c2c(c(N)c1C#N)C(=O)N(CCc1ccccc1)C2=O | > 100 | > 100 | > 100 | > 100 |  | > 100 | > 100 | > 100 | > 100 | > 100 |  | > 100 | > 100 | > 100 | > 100 | > 100 | > 100 | > 100 | > 100 | > 100
11 | O=C(Nc1cccc2ccccc12)Nn1cnnc1 | > 100 | > 100 | > 100 | > 100 | > 100 | > 100 | > 100 | > 100 | > 100 | > 100 | > 100 | > 100 | > 100 | > 100 | > 100 | > 100 | > 100 |  | > 100 | > 100
12 | COc1cc(/C=C(\C#N)c2nc3ccccc3o2)ccc1O | 27.8 | 65.1 | 34.5 | 75.2 | 52.8 | 33 | 46.9 | 42.6 | 40.9 | > 100 | 36.7 | 47.3 | 28.5 | 45.9 |  | > 100 | 63.6 | 66.4 | 75 | 41.9
